Measured values published in US9321756B2, “Azole compounds as PIM inhibitors” (priority 2011, dated 2016).

Columns and labels:
Format in all cases: biochemical
[1] = molecular target: full length recombinant Pim-1 (Homo sapiens (Human), UniProt P11309); test: Pim enzyme assay (HTRF, phosphorylation of biotinylated-BAD (S112) peptide), Pim-1; conditions: Pim-1 enzyme assay; read-out: Pim_1_IC50
[2] = molecular target: full length recombinant Pim-2 (Homo sapiens (Human), UniProt Q9P1W9); test: Pim enzyme assay (HTRF, phosphorylation of biotinylated-BAD (S112) peptide), Pim-2; conditions: Pim-2 enzyme assay; read-out: Pim2_IC50
Sequence of full length recombinant Pim-2 (Q9P1W9 whole entry): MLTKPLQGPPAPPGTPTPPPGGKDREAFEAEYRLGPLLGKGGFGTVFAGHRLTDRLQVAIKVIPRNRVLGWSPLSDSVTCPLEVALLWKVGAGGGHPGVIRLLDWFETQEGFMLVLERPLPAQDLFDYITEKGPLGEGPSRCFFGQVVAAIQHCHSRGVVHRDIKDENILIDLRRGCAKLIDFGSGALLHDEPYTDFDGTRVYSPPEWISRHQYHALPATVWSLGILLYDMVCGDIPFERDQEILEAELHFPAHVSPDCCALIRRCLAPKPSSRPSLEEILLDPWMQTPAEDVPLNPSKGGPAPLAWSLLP

[3] = molecular target: full length recombinant Pim-3 (Homo sapiens (Human), UniProt Q86V86); test: Pim enzyme assay (HTRF, phosphorylation of biotinylated-BAD (S112) peptide), Pim-3; conditions: Pim-3 enzyme assay; read-out: Pim3 IC50
Excerpt: Pim-3 was purchased from Millipore (UK).
The phosphorylation of biotinylated-BAD (S112) peptide by full length recombinant Pim-1, Pim-2, or Pim-3 protein was detected with streptavidin:Allophycocyanin (APC) conjugate and a europium (Eu) labeled antibody directed against phosphorylated-BAD (S112). […] The fluorescence is directly proportional to the amount of phosphorylated BAD peptide present in the reaction.
A reference compound was included on each assay plate in order to validate that plate; on one plate of every assay run, two additional reference compounds were included.
The final buffer conditions were as follows: 60 mM Hepes, pH 7.0, 0.05% BSA, 2 mM DTT. Incubations were carried out at RT (22° C.) for 2 h for Pim-1, 1 h and 30 min for Pim-3, and 45 min for Pim-2. The reaction was then stopped by the addition of 3 mM EDTA, and fluorescence was measured by an HTRF® Rubystar microplate reader. For each plate, percent of control (POC) values were calculated for each well. Values for the IC50 IP were estimated using a standard 4-parameter logistic model.

Sequence of full length recombinant Pim-1 (P11309 whole entry): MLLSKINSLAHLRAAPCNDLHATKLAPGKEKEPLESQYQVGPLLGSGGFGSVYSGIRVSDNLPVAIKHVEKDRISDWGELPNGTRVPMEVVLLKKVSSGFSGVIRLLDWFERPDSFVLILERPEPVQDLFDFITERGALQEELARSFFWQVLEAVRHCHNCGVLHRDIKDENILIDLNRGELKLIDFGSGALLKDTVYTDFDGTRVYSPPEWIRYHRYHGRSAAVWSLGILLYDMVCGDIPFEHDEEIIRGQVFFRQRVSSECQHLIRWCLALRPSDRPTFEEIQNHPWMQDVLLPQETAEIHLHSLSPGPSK

SMILES | IC50 [1] [µM] | IC50 [2] [µM] | IC50 [3] [µM]
Nc1nnc(-c2ccc3[nH]cc(-c4ncccn4)c3c2)o1 [Example 93, 5-(3-(2-pyrimidinyl)-1H-indol-5-yl)-1,3,4-oxadiazol-2-amine] | 0.269 | 0.111 | 0.14
Nc1nnc(-c2ccc3[nH]cc(-c4nccc(C(F)(F)F)n4)c3c2)o1 [Example 96, 5-(3-(4-(trifluoromethyl)-2-pyrimidinyl)-1H-indol-5-yl)-1,3,4-oxadiazol-2-amine] | 0.067 | 0.0319 | 0.012
Nc1nnc(-c2ccc3[nH]cc(-c4cncc(Cl)n4)c3c2)o1 [Example 102, 5-(3-(6-chloro-2-pyrazinyl)-1H-indol-5-yl)-1,3,4-oxadiazol-2-amine] | 0.157 | 0.146 | 0.0292
COC[C@@H]1CCCN1c1ccnc(-c2c[nH]c3ccc(-c4nnc(N)o4)cc23)n1 [Example 109, 5-(3-(4-((2S)-2-(methoxymethyl)-1-pyrrolidinyl)-2-pyrimidinyl)-1H-indol-5-yl)-1,3,4-oxadiazol-2-amine] | 0.0322 | 0.0268 | 0.013
Cc1ccccc1-c1ccnc(-c2c[nH]c3ccc(-c4nnc(N)o4)cc23)n1 [Example 124, 5-(3-(4-(2-methylphenyl)-2-pyrimidinyl)-1H-indol-5-yl)-1,3,4-oxadiazol-2-amine] | 0.0279 | 0.0334 | 0.0172
CC(C)Oc1cccc(-c2c[nH]c3ccc(-c4nnc(N)o4)nc23)c1 [Example 126, 5-(3-(3-(1-methylethoxy)phenyl)-1H-pyrrolo[3,2-b]pyridin-5-yl)-1,3,4-oxadiazol-2-amine] | 0.272 | 0.244 | 0.0848
Nc1nnc(-c2ccc3[nH]cc(-c4cc(C(=O)Nc5ccccc5)ccc4F)c3c2)s1 [Example 137, 3-(5-(5-amino-1,3,4-thiadiazol-2-yl)-1H-indol-3-yl)-4-fluoro-N-phenylbenzamide] | 0.176 | 0.237 | 0.0903
Nc1nnc(-c2ccc3[nH]cc(-c4c(F)cccc4F)c3c2)s1 [Example 138, 5-(3-(2,6-difluorophenyl)-1H-indol-5-yl)-1,3,4-thiadiazol-2-amine] | 0.199 | 0.348 | 0.0967
Fc1ccccc1-c1c[nH]c2ccc(-c3nnc(NCc4ccc5[nH]ccc5c4)s3)cc12 [Example 142, 5-(3-(2-fluorophenyl)-1H-indol-5-yl)-N-(1H-indol-5-ylmethyl)-1,3,4-thiadiazol-2-amine] | 0.109 | 1.48 | 0.0595
NC1CCN(c2nnc(-c3ccc4[nH]cc(-c5ccccc5F)c4c3)s2)CC1 [Example 144, 1-(5-(3-(2-fluorophenyl)-1H-indol-5-yl)-1,3,4-thiadiazol-2-yl)-4-piperidinamine] | 0.267 | 1.7 | 0.163
CC(=O)Nc1cccc(CNc2nnc(-c3ccc4[nH]cc(-c5ccccc5F)c4c3)s2)c1 [Example 145, N-(3-(((5-(3-(2-fluorophenyl)-1H-indol-5-yl)-1,3,4-thiadiazol-2-yl)amino)methyl)phenyl)acetamide] | 0.308 | 2.17 | 0.308
COCC(=O)Nc1cccc(CNc2nnc(-c3ccc4[nH]cc(-c5ccccc5F)c4c3)s2)c1 [Example 146, N-(3-(((5-(3-(2-fluorophenyl)-1H-indol-5-yl)-1,3,4-thiadiazol-2-yl)amino)methyl)phenyl)-2-methoxyacetamide] | 0.365 | 2.51 | 0.54
Cc1[nH]c2ccc(CNc3nnc(-c4ccc5[nH]cc(-c6ccc(F)cc6F)c5c4)s3)cc2c1C [Example 147, 5-(3-(2,4-difluorophenyl)-1H-indol-5-yl)-N-((2,3-dimethyl-1H-indol-5-yl)methyl)-1,3,4-thiadiazol-2-amine] | 0.513 | > 3 | 0.634
CC(=O)Nc1ccc(CNc2nnc(-c3ccc4[nH]cc(-c5ccc(F)cc5F)c4c3)s2)cc1 [Example 148, N-(4-(((5-(3-(2,4-difluorophenyl)-1H-indol-5-yl)-1,3,4-thiadiazol-2-yl)amino)methyl)phenyl)acetamide] | 0.777 | > 3 | 1.27
Fc1ccccc1-c1c[nH]c2ccc(-c3nnc(NCc4ccccc4)s3)cc12 [Example 149, N-benzyl-5-(3-(2-fluorophenyl)-1H-indol-5-yl)-1,3,4-thiadiazol-2-amine] | 1.05 | > 3 | 0.522
Nc1nnc(-c2ccc3[nH]cc(-c4cccc(C(F)(F)F)n4)c3c2)s1 [Example 182, 5-(3-(6-(trifluoromethyl)-2-pyridinyl)-1H-indol-5-yl)-1,3,4-thiadiazol-2-amine] | 0.121 | 0.135 | 0.0225

SMILES | IC50 [1] [µM] | IC50 [2] [µM] | IC50 [3] [µM]
N#Cc1cccc(-c2c[nH]c3ccc(-c4nnc(N)s4)cc23)n1 [Example 183, 6-(5-(5-amino-1,3,4-thiadiazol-2-yl)-1H-indol-3-yl)-2-pyridinecarbonitrile] | 0.156 | 0.174 | 0.0482
Nc1nnc(-c2ccc3[nH]cc(-c4cccc(-n5ccccc5=O)n4)c3c2)s1 [Example 185, 6′-(5-(5-amino-1,3,4-thiadiazol-2-yl)-1H-indol-3-yl)-2H-1,2′-bipyridin-2-one] | 0.224 | 0.244 | 0.0682
Nc1cc(-c2c[nH]c3ccc(-c4nnc(N)s4)cc23)ccn1 [Example 186, 4-(5-(5-amino-1,3,4-thiadiazol-2-yl)-1H-indol-3-yl)-2-pyridinamine] | 0.26 | 0.27 | 0.0838
Nc1nnc(-c2ccc3[nH]cc(-c4cnc(N5CCCC5)cn4)c3c2)s1 [Example 189, 5-(3-(5-(1-pyrrolidinyl)-2-pyrazinyl)-1H-indol-5-yl)-1,3,4-thiadiazol-2-amine] | 0.564 | 0.69 | 0.0732
Nc1cccc(-c2c[nH]c3ccc(-c4nnc(N)s4)cc23)n1 [Example 190, 6-(5-(5-amino-1,3,4-thiadiazol-2-yl)-1H-indol-3-yl)-2-pyridinamine] | 0.705 | 0.977 | 0.186
Nc1nnc(-c2ccc3[nH]cc(-c4cnc(N5CCOCC5)cn4)c3c2)s1 [Example 192, 5-(3-(5-(4-morpholinyl)-2-pyrazinyl)-1H-indol-5-yl)-1,3,4-thiadiazol-2-amine] | 0.908 | 2.4 | 0.266
CCCCOc1cnc(-c2c[nH]c3ccc(-c4nnc(N)s4)cc23)cn1 [Example 193, 5-(3-(5-butoxy-2-pyrazinyl)-1H-indol-5-yl)-1,3,4-thiadiazol-2-amine] | 0.931 | 1.55 | 0.392
Nc1nnc(-c2ccc3[nH]cc(-c4cnc(N5CCCC5=O)cn4)c3c2)s1 [Example 194, 1-(5-(5-(5-amino-1,3,4-thiadiazol-2-yl)-1H-indol-3-yl)-2-pyrazinyl)-2-pyrrolidinone] | 0.945 | 1.04 | 0.509
Nc1nnc(-c2ccc3[nH]cc(-c4cnc(OC5CCCC5)cn4)c3c2)s1 [Example 195, 5-(3-(5-(cyclopentyloxy)-2-pyrazinyl)-1H-indol-5-yl)-1,3,4-thiadiazol-2-amine] | 0.956 | 1.34 | 0.506
Nc1nnc(-c2ccc3[nH]cc(-c4cccc(O)n4)c3c2)s1 [Example 196, 6-(5-(5-amino-1,3,4-thiadiazol-2-yl)-1H-indol-3-yl)-2-pyridinol] | 2.07 | > 3 | 0.918
Cc1ccn(-c2cnc(-c3c[nH]c4ccc(-c5nnc(N)s5)cc34)cn2)n1 [Example 197, 5-(3-(5-(3-methyl-1H-pyrazol-1-yl)-2-pyrazinyl)-1H-indol-5-yl)-1,3,4-thiadiazol-2-amine] | 2.27 | 2.9 | 0.836
COc1cncc(-c2c[nH]c3ccc(-c4nnc(N)s4)cc23)c1 [Example 199, 5-(3-(5-methoxy-3-pyridinyl)-1H-indol-5-yl)-1,3,4-thiadiazol-2-amine] | 0.268 | 0.618 | 0.165
Nc1nnc(-c2ccc3[nH]cc(-c4cccc(NC5CCCCC5)n4)c3c2)s1 [Example 205, 6-(5-(5-amino-1,3,4-thiadiazol-2-yl)-1H-indol-3-yl)-N-cyclohexyl-2-pyridinamine] | 0.11 | 0.227 | 0.0216
Nc1nnc(-c2ccc3[nH]cc(-c4cccc(F)n4)c3c2)s1 [Example 209, 5-(3-(6-fluoro-2-pyridinyl)-1H-indol-5-yl)-1,3,4-thiadiazol-2-amine] | 0.705 | 0.558 | 0.149
Nc1cncc(-c2c[nH]c3ccc(-c4nnc(N)s4)cc23)n1 [Example 210, 6-(5-(5-amino-1,3,4-thiadiazol-2-yl)-1H-indol-3-yl)-2-pyrazinamine] | 0.142 | 0.192 | 0.0287
CNc1nnc(-c2ccc3[nH]cc(-c4cnc5ccccc5c4)c3c2)s1 [Example 217, N-methyl-5-(3-(3-quinolinyl)-1H-indol-5-yl)-1,3,4-thiadiazol-2-amine] | 0.234 | 1.63 | 0.181
